Measured values from article PMC11819603, “Development of a reliable, sensitive, and convenient assay for the discovery of new eIF5A hypusination inhibitors” (PLOS ONE, 2025).

Legend:
[1] = tested on: eIF5A hypusination in HT29 cells; assay: eIF5A hypusination in intact HT29 cells, Western blot; assay type: cell-based; conditions: Homo sapiens, HT-29, 24 h
Protocol: We tested the ability of the GC7 analogs to inhibit hypusination in intact cells. MCF-7 cells (Fig 5B), a classical model of breast cancer cell line, and HT29 cells (Fig 5C), a cell model of colorectal cancer, were treated with 40 μM of GC7, 1, 2, 3, and 4 for 24h. Cells were lysed and analyzed by Western blot. As observed, none of the molecules modified eIF5A expression. […] GC7 analogs inhibited hypusination from 35 to 55%.
The human breast cancer cell line MCF7 (HTB-22 ATCC) and colorectal adenocarcinoma HT29 (HTB-38 ATCC) were cultured in DMEM (Gibco) supplemented with 10% FBS (Dutscher), 10 U/mL penicillin, and 10 mg/mL streptomycin. […]
After treatment, cells were washed with ice-cold PBS and lysed in RIPA Buffer (50 mM Tris pH 7.5, 150 mM NaCl, 0.1% SDS, 0.5% Na Deoxycholate, 5 mM NaF, 2.5 mM Na4P2O7, 1% NP4O) containing a protease inhibitor cocktail (complete Roche). […] The membranes were probed with the appropriate primary antibody that was detected by horseradish peroxidase-conjugated secondary antibody (Jackson Immunoresearch) and visualized by chemiluminescence (ECL Amersham RPN 3244) using a Fuji LAS-4000 imager. ImageJ® software was used to quantify band intensity and the ratios of proteins of interest were normalized to a loading control. […]

DOHH = biological target: T1, DOHH (Homo sapiens, UniProt Q9BU89); assay: Hyp'Assay, substance added after the deoxyhypusination reaction (DOHH step); assay type: biochemical; conditions: 5 μM spermidine
T1 construct: pelB leader (N); host or cells: E. coli BL21 (DE3)
T1 sequence (Q9BU89 1-302): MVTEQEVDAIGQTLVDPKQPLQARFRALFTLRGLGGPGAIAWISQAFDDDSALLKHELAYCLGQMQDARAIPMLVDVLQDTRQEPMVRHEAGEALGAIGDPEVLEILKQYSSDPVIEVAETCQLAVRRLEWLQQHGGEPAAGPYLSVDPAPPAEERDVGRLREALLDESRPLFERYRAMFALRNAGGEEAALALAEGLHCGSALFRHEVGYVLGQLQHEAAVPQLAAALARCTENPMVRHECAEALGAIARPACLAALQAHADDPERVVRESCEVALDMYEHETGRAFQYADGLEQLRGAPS
Protocol: We then tested the ability of DOHH inhibitors to inhibit eIF5A hypusination using the Hyp’Assay. During the Hyp’Assay, DOHH inhibitors were added after the deoxyhypusination reaction.
To address this issue, we compared the ability of GC7 to inhibit DHPS or DOHH by adding GC7 during the first step of the Hyp’Assay; when DHPS mediates the deoxyhypusination reaction (Fig 2A), or only during the second step, when DOHH hydroxylate deoxyhypusinated eIF5A. […] When finding new hypusination inhibitors adding them during the first or the second step of the Hyp’Assay will allow us to determine if the inhibition affects DHPS or DOHH. Another way to discriminate between DHPS or DOHH inhibitors would be to use Hpu98, an antibody that recognized both hypusinated and deoxyhypusinated eIF5A, instead of Hpu24, which is specific for hypusinated eIF5A [18]. […] We performed a new Hyp’Assay by omitting DOHH in the reaction mix and using the Hpu98 antibody. First, we performed a dose response experiment with spermidine at pH: 8.0 and 9.0 (Fig 3E). […] We also tested the ability of GC7 (Fig 3F) and CPX or EDTA (Fig 3G) to inhibit DHPS.
[…] Then 10 μL containing 1 μg of DOHH with 10 μM Fe^2+ (H8FeN2O8S2^. 6H2O) were added. After 1 h proteins were analyzed by Western Blot using antibodies toward DHPS, DOHH, Hypusine, and eIF5A.
The cell-free reaction described in 4.4 is performed in triplicates in a 96-wells plate (MaxiSorp, ThermoFisher) in the presence of 3 μg of eIF5A, 2 μg of DHPS, and 2 μg of DOHH by well. The reaction product, hypusinated eIF5A, is adsorbed onto the plate overnight at 4°C. The plate is washed (100 μL/well) thrice with PBS-T (PBS– 0.05% Tween20), then saturated with 1% non-fat dry milk in PBS-T for 2 h at room temperature. The plate is washed thrice with PBS-T and incubated overnight at 4°C with the anti-hypusine antibody (1:2000 in saturation buffer, 50 μL/well). The next day and after 5 washes with PBS-T, HRP-coupled anti-rabbit secondary antibody diluted 1:5000 in saturation buffer (50 μL/well) is added for 2 h at room temperature.

**Q.** With N=C(N)NCCCCCCCN [GC7, N1-guanyl-1,7-diaminoheptane] as the molecule, how does the inhibition at 40 µM [1] read?
**A.** 80%

**Q.** What about the “Relative hypusination of eIF5A, Mean (quantification from Figure 3D)” value (DOHH; GC7 added during the DOHH step, CTRL 100,0) of the same molecule?
**A.** 99,58 a.u

**Q.** And the effect on hypusination (DOHH; added only during the hydroxylation step (DOHH))?
**A.** no inhibition was observed
